# Laboratory results from patent US12613249B2 (THE ROYAL INSTITUTION FOR THE ADVANCEMENT OF LEARNING / …, priority 2019, dated 2026).
# Square brackets hold non-standard residues; d marks the D form. Peptide text beside a SMILES is read from it.
# Tests used:
# [1] = Ex-vivo stability in mouse liver S9-fraction, MALDI-TOF MS; type: in vitro ADME, C57BL/6 mice
# Description: The stability of D-AIP in mouse plasma, blood and liver S-9 fraction was investigated to ascertain the metabolic resistance towards proteases and enzymatic activities in these matrices. Whole mouse blood obtained from healthy C57BL/6 male and female mice (6 mice in total) were collected in lithium heparin containing tubes, pooled and stored at 4° C. prior to its use. A fraction of the pooled blood was immediately centrifuged at 1500×g for 10 min at 4° C. to obtain the plasma. The whole blood and plasma samples were spiked with PBS (as control) or AIP (L-AIP, D-AIP or sD-AIP respectively) to make a final concentration of 1 ug/mL and incubated at 37° C. Initial samples were withdrawn to represent t=0 prior to incubation and others were withdrawn 1, 3 and 24 h respectively. Fresh mouse liver also obtained from C57BL/6 male and female mice were pooled, homogenized in 0.15 M Potassium chloride (KCl) and centrifuged at 9000×g. The supernatant represents liver homogenate (S-9) fraction which was mixed with other buffers to formulate the liver S-9 mix as previously described (Kolrep et al., 2017, Toxicol In Vitro, 42:161-170). Liver S-9 mix were spiked with AIP to make a final concentration of 1 μg/mL (L-AIP, D-AIP or sD-AIP respectively) and incubated at 37° C. Just after the addition of NADPH, 100 μL aliquot which represents t=0 samples were withdrawn and others were sampled accordingly at predetermined time points. 400 μL of ice cold MeOH was added to the spiked plasma, blood or liver S-9 fraction respectively, to precipitate the microsomal protein. The samples were then vigorously mixed for 30 s to facilitate extraction and centrifuged for 10 minutes at 13000 rpm, the supernatant was subjected to sample clean up by C18 ZipTip (EMD Millipore Corporation), the eluates were spotted with CHCA matrix on the ground steel MALDI-TOF target and analyzed with MALDI-TOF MS. Applying the t=0 peak area as 100% the intensities of the other time points were compared relatively for interpretation. […]
# [2] = Brain homogenate concentrations after single oral dose, LC-MS; type: in vivo, C57BL/6 mice; settings: for maximum brain concentration / peak brain concentration: brain homogenate; for maximum brain concentration / time of maximum brain concentration: female mice
# Description: An internal standard (IS) for the reliable quantification of D-AIP in biological matrices was prepared by dimethylation to produce an analog of D-AIP by using a protocol previously described (Boersema et al., 2009, Nat Protoc, 4:484-494). Standard solutions (1 mg/mL) each of D-AIP and IS were prepared in deionized water and 100% methanol respectively. 100 μL of IS working solution was prepared at 50 ng/ml added to 25 μL of the sample (plasma or brain homogenate). The sample was vortexed for approximately 5 s and let stand for 10 min, then centrifuged at 16,000 g for 10 min. The supernatant was transferred to a 13×100 polypropylene tube and evaporated to dryness at 50° C. under gentle stream of nitrogen. The dry extract was re-suspended with 40 μL of 0.1% (v/v) formic acid (Sigma Aldrich, St-Louis, MO, USA) in deionized water and transferred to an injection vial for analysis.
# Thermo Scientific TSQ Quantiva Triple Quadrupole mass spectrometer (San Jose, CA, USA) was interfaced with the Thermo Scientific UltiMate 3000 XRS UHPLC system (San Jose, CA, USA) using a pneumatic assisted heated electrospray ion source. Data acquisition and analysis were performed using Xcalibur 4.0 (San Jose, CA, USA).
# […]radient elution was used with a Thermo Scientific BioBasic-8 column (100×2 mm I.D. 5 μm) operating at 40° C. The initial mobile phase condition consisted of 0.1% formic acid in acetonitrile and 0.1% formic acid in deionized water at a ratio of 5:95, respectively and this ration was maintained for 1 min. A linear gradient was applied from 1 to 5 min up to a ratio of 50:50 and maintained for 1 min. At 6.1 min, the mobile phase composition was reverted to 5:95 and the column was allowed to equilibrate for 7.9 min for a total run time of 14 min. The D-AIP and IS eluted at 4.7 and 4.8 min respectively at a fixed flow rate of 0.2 mL/min. The eluent was diverted to waste for the first minute and last six minutes. Extracted sample (5 μL) was injected and the acquisition time was set to 14 min.
# The mass spectrometer was interfaced with ultra-high-performance liquid chromatography (UHPLC) system using a pneumatic assisted heated electrospray ion source with detection in positive ion mode using […] (MRM). For proper optimization of the mass spectrometer, standard solutions of D-AIP and IS were infused. The obtained source parameters were 50 and 15 arbitrary units respectively while using nitrogen for the sheath and auxiliary gases. The HESI electrode was set to 3500 V, capillary and vaporizer temperature were both set to 300° C. respectively. The MS/MS parameters were optimized using the doubly charged species. Argon was used as collision gas at a pressure of 2.5 mTorr. The precursor-ion reaction for D-AIP were set to 471.4→[591.8+648.3] and for the IS the MRM transitions were set to 499.4→[425.8+468.8+476.8]
# Standard solution of D-AIP (1 mg/mL) was diluted in various volumes of deionized water to obtain series of standard working solutions. Calibration standards were prepared by fortifying the mouse plasma and mouse brain homogenate with the standard working solutions at 10% (v/v) to enable analytical concentration range of 1.00 to 1000 ng/ml. The method is linear using a linear regression weighted 1/x analysis, a value of R^2≥0.9979 was obtained for plasma and R^2≥0.9991 for brain homogenate. Samples were injected in duplicate with the calculated in each case and concentrations were processed from the equation obtained from the respective calibration curves using Xcalibur 4.0 software.
# Animal care and all animal experiments were undertaken with federal guidelines and approval of the Institutional Animal Ethical Committee of McGill University, Montreal, Canada (Protocol Application Number: 2017-7880) and adequate measures were taken to minimize pain or discomfort. […]
# [3] = Ex-vivo stability in mouse plasma, MALDI-TOF MS; type: in vitro ADME, C57BL/6 mice; settings: 37° C., 24 h
# Description: The stability of D-AIP in mouse plasma, blood and liver S-9 fraction was investigated to ascertain the metabolic resistance towards proteases and enzymatic activities in these matrices. Whole mouse blood obtained from healthy C57BL/6 male and female mice (6 mice in total) were collected in lithium heparin containing tubes, pooled and stored at 4° C. prior to its use. A fraction of the pooled blood was immediately centrifuged at 1500×g for 10 min at 4° C. to obtain the plasma. The whole blood and plasma samples were spiked with PBS (as control) or AIP (L-AIP, D-AIP or sD-AIP respectively) to make a final concentration of 1 ug/mL and incubated at 37° C. Initial samples were withdrawn to represent t=0 prior to incubation and others were withdrawn 1, 3 and 24 h respectively. Fresh mouse liver also obtained from C57BL/6 male and female mice were pooled, homogenized in 0.15 M Potassium chloride (KCl) and centrifuged at 9000×g. […] The samples were then vigorously mixed for 30 s to facilitate extraction and centrifuged for 10 minutes at 13000 rpm, the supernatant was subjected to sample clean up by C18 ZipTip (EMD Millipore Corporation), the eluates were spotted with CHCA matrix on the ground steel MALDI-TOF target and analyzed with MALDI-TOF MS. […]
structure (smiles),measurement,setting,value
C[C@H](O)[C@@H](NC(=O)CNC(=O)[C@H](N)CCCNC(=N)N)C(=O)N[C@H](Cc1ccccc1)C(=O)N[C@H](CCC(=O)O)C(=O)NCC(=O)N[C@H](CCCCN)C(=O)N[C@H](Cc1ccccc1)C(=O)O [D-AIP] (H-[dR]G[dT][dF][dE]G[dK][dF]-OH; N-terminus and C-terminus assumed),"stability, MALDI-TOF MS signal (941 m/z)","[1]; mouse liver S9-fraction, 37° C., 24 h",relatively stable over 24 h
same,signal intensity compared to the unincubated sample,"[1]; mouse liver S-9 fraction, after 24 h",three-fold decreased intensity
same,tissue level at time at 4 h,"[2]; C57BL/6, mouse, brain, male mice, highest dose (100 mg/kg oral), after 4 h, read-out: brain concentration during elimination",38.5 ng/g
same,maximum brain concentration,"[2]; single oral dose 10 mg/kg, at 4 h",28.91 ng/g
same,maximum brain concentration,"[2]; single oral dose 30 mg/kg, at 2 h",136.29 ng/g
same,maximum brain concentration,"[2]; single oral dose 100 mg/kg, at 2 h",707.95 ng/g
same,peak brain concentration,"[2]; male mice, single oral dose 10 mg/kg, at 4 h",133.15 ng/g
same,peak brain concentration,"[2]; male mice, single oral dose 30 mg/kg, at 2 h",262.00 ng/g
same,peak brain concentration,"[2]; male mice, single oral dose 100 mg/kg, at 0.5 h",509.24 ng/g
same,crossing of the BBB,"[2]; female and male mice, single oral doses 10, 30, 100 mg/kg",crossed the BBB and reached the brain
same,time of maximum brain concentration,[2]; single oral dose 10 mg/kg,4 h
same,time of maximum brain concentration,[2]; single oral dose 30 mg/kg,2 h
same,time of maximum brain concentration,[2]; single oral dose 100 mg/kg,2 h
same,time of peak brain concentration,"[2]; male mice, single oral dose 10 mg/kg",4 h
same,time of peak brain concentration,"[2]; male mice, single oral dose 30 mg/kg",2 h
same,time of peak brain concentration,"[2]; male mice, single oral dose 100 mg/kg",0.5 h
same,"stability, MALDI-TOF MS signal (941 m/z)",[3],relatively stable over 24 h
